From patent US7807777B2, “Marker peptide for alzheimer's disease” (Immuno-Biological Laboratories Co., Ltd., priority 2003, dated 2010)

Tests used:
[1] = system: presenilin; assay: Western blotting of cell lysates of HEK293 cells expressing APP695, Alcα, Alcβ or Alcγ, with or without presenilin inhibitor; type: cell-based; settings: 1 μl of 1 mM DMSO solution per 1 ml culture medium, 24 hrs
Procedure: A DNA encoding Alcα, Alcβ, Alcγ, or APP695 (an isoform of human APP consisting of 695 amino acids) was inserted into a mammalian expression vector pcDNA3.1 (Invitrogen).
(§1) HEK293 cells were seeded in DMEM (D5796: Sigma) containing 10% fetal bovine serum in a 6-well culture plate (area of base: 10 cm^2) and transfected with the expression vector prepared above by using a transfection reagent (LipofectAMINE 2000: Invitrogen). As a control, HEK293 cells were similarly transfected with an empty pcDNA3.1 vector.
One microliter of a DMSO solution containing 1 mM of a presenilin inhibitor L-685,458 (Calbiochem) was added to 1 ml of the culture medium. After the incubation for 24 hrs, a sample of the culture medium was taken. As a control, an equal quantity of DMSO instead of the L-685,458 solution was added to the culture medium and similarly incubated. Then, a sample of the culture medium was taken. The sample of the culture medium was added to 1 ml of HBST buffer (10 mM HEPES of pH 7.4, 150 mM sodium chloride, 0.5% Triton X-100, 5 μg/ml chymostatin, 5 μg/ml leupeptin, and […]) for extracting proteins of the cells. The solubilized cells were centrifuged (12000×g, 10 min) and supernatant was collected to recover the solubilized components. The solubilized components (7.5 μl) were added to 7.5 μl of a sample-buffer mixture (a mixture of 5 μl of 5×SDS sample buffer and 2.5 μl of 8 M urea solution) and boiled for 5 min. This sample was subjected to SDS-PAGE of 8/15% 2-stage gel and then the proteins were transferred on a nitrocellulose membrane for conducting Western blotting. The SDS-PAGE was performed according to the general method of Laemmli. As the primary antibody, an anti-APP cytoplasmic domain antibody (G369, 1/2000 dilution), anti-Alcα antibody (UT83, 0.3 μg/ml), anti-Alcβ antibody (UT99, 0.5 μg/ml), and anti-Alcγ antibody (UT105, 1/500 dilution) were used. The detection was performed by using an ECL kit (Pharmacia). The UT99 and UT105 are antibodies recognizing the C-terminals of Alcβ and Alcγ, respectively. FIG. 6 and FIG. 7A to C show the results.

[2] = system: presenilin; assay: Incubation of membrane fragments of HEK293 cells expressing Alcα, Alcβ or Alcγ, Western blotting with anti-Alc antibodies; type: biochemical; settings: Alcβ and Alcγ, final concentration 1 μM, 37° C. for 1 or 3 hrs, FIG. 8A to C
Procedure: DNAs encoding Alcα, Alcβ, or Alcγ were each inserted into a mammalian expression vector pcDNA3.1 (Invitrogen).
as §1, with “DMEM” for “DMEM (D5796: Sigma)”, “a 10-cm” for “a 6-well”, “base: 60” for “base: 10”, “were” for “were similarly”
After the incubation for 24 hrs, the culture medium was removed and the cells were washed with ice-cooled PBS. Then, 10 ml of PBS was added again. The cells were detached from the plate by pipetting and transferred into a 15 ml Falcon tube. The cells were collected by centrifugation (1500 rpm, 10 min, low-speed refrigerated centrifuge: Beckmann) as a pellet of the cells. One milliliter of buffer D (0.25 M sucrose, 10 mM triethanolamine-acetate of pH 7.8, 5 μg/ml chymostatin, 5 μg/ml leupeptin, and 5 μg/ml pepstatin) was added to the pellet of the cells, and the cells were broken by 12 passages through a 27 G needle. Then, the broken cells were centrifuged with a TOMY TMA-6 rotor at 3000 rpm (1000×g) for 10 min at 4° C. to remove unbroken cells and nuclei and to obtain a nucleus-removed cell homogenate. […]

Compound: CC(C)C[C@H](NC(=O)[C@H](Cc1ccccc1)C[C@@H](O)[C@H](Cc1ccccc1)NC(=O)OC(C)(C)C)C(=O)N[C@@H](Cc1ccccc1)C(N)=O [L-685,458]
- C-terminal fragment (CTFα) of APP in the cell lysate ([1]; HEK293 cells expressing APP695, FIG. 6): a large amount of the C-terminal fragment (CTFα) was detected in the cell lysate only when the presenilin inhibitor (L-685,458) was added
- C-terminal fragment (CTF1) of Alcα in the cell lysate ([1]; HEK293 cells expressing Alcα, FIG. 7A): C-terminal fragments (CTF1) were detected only when the presenilin inhibitor was added
- C-terminal fragment of Alcβ in the cell lysate ([1]; HEK293 cells expressing Alcβ, FIG. 7B): detected even when the presenilin inhibitor was not added
- C-terminal fragment (CTF1) of Alcγ in the cell lysate ([1]; HEK293 cells expressing Alcγ, FIG. 7C): C-terminal fragments (CTF1) were detected only when the presenilin inhibitor was added
- fragments (such as Alcα-ICD) containing the C-terminal of each Alc [2]: such fragments were not detected
